Reference: publication PMC10287695, “Non-covalent inhibitors of thioredoxin glutathione reductase with schistosomicidal activity in vivo” (Nature Communications, 2023)
Read-outs that look alike come from different tables or passages of the source.

How the values were obtained:
Assay type in all cases: cell-based
S. mansoni adult worms [1] = assay: GSH/GSSG ratio in ex vivo adult worms; conditions: for Decrease (%) in GSH/GSSG ratio: adult worms, 3 h exposure to compounds at 50 μM
Procedure: We assessed GSH/GSSG levels experimentally by treating S. mansoni adult worms with 50 µM of compounds, or respective controls 5 µM Auranofin, 50 µM PZQ or 50 µM MZM and 0.01% DMSO for 3 h. Worm homogenate was prepared by washing three times with PBS to remove residual compounds and ten volumes of ice cold 5% sulfosalicylic acid was added. Worms were manually homogenized on ice using VWR Pellet Mixer Adaptor. The worm suspension was centrifuged at 14000 × g, 4 °C for 10 min and the acid supernatants transferred. An equal volume of ice-cold neutralization buffer (500 mM HEPES, pH 8.0) was added to the acid supernatants.
GSH/GSSG assay was performed by diluting the acid supernatant (5-fold) with ice-cold dilution buffer (250 mM HEPES, pH 7.5). Using white opaque luminescence plate on ice, 25 µl of the diluted worm acid supernatant was added each well in triplicates. Total glutathione lysis reagent and GSSG lysis reagent, which contains alkylating agent N-ethylmaleimide (25 mM) were prepared following manufactures protocol and added to respective wells along with blank for background. Total glutathione lysis reagent or oxidized glutathione lysis reagent (25 µl) was added to respective wells containing worm acid supernatants and the plate was shaken for 5 min. Luciferin generation reagent (LGR) (50 µl) was added to all wells, briefly shaken and incubated at room temperature for 30 min. Luciferin detection reagent (LDR) (100 µl) was added to all wells, briefly shaken and incubated for 15 min at room temperature and the luminescence measured using microplate imager (BioTek Cytation3). GSH/GSSH ratio for DMSO control and compounds were calculated using (Net DMSO total glutathione RFU) – (Net DMSO GSSG RFU)/ (Net DMSO GSSG RFU)/2 and (Net inhibitor total glutathione RFU) – (Net inhibitor GSSG RFU)/ (Net inhibitor GSSG RFU)/2 respectively.

S. mansoni adult worms [2] = assay: Schistosomicidal activity ex vivo, adult worms (Cell Titer Glo), alone or with channel blockers; conditions: for LD50 ex vivo S. mansoni adult: 24 h exposure, compound alone; for viability at 5 µM / viability at 10 µM / viability at 25 µM / viability at 35 µM: Schistosoma mansoni, S. mansoni adult worms; for viability at 5 µM: Conc. 5 µM; for viability at 5 µM / viability at 10 µM / viability at 25 µM: read-out: % viability; for viability at 10 µM: Conc. 10 µM; for viability at 25 µM: Conc. 25 µM; for viability at 35 µM: Conc. 35 µM
Procedure: Three-week old, female Swiss-Webster mice obtained from the Charles River were housed in the Comparative Research Center of Rush University Medical Center. Mice were infected by percutaneous tail exposure to about 200 S. mansoni or 50 S. japonicum cercaria for adult worms and about 1000 cercaria for juvenile S. mansoni worms through natural transdermal penetration of the cercariae for 1 h[81].
DMSO formulated compounds were diluted with phenol red free M199 medium or RPMI medium for NTS or juvenile and adult worms, respectively, at <1% DMSO final concentrations. NTS, juvenile and adult worms from overnight cultures were tested against compounds in triplicate. Controls were treated with DMSO alone or 5 µM AF as a positive control in appropriate medium. […] Schistosome viabilities in the presence of the compounds were assessed using this formula: % Viability = Averages of Test / Averages of DMSO Control x 100.

[3] = tested on: S. mansoni newly transformed schistosomula (NTS); assay: Schistosomicidal activity ex vivo, NTS (Cell Titer Glo); conditions: for LD50 ex vivo S. mansoni NTS: 24 h exposure, Cell TiterGlo
Procedure: Oncomelania hupensis subsp. hupensis, Chinese strain, infected with S. japonicum, Chinese strain, and Biomphalaria glabrata, strain NMRI, infected with S. mansoni, strain NMRI, were provided by the NIAID Schistosomiasis Resource Center for distribution through BEI Resources, NIAID, NIH. After infections were patent, snails were exposed to bright light for 1 hr to obtain cercariae. Cercariae were mechanically transformed to schistosomula. Briefly, cercariae were placed on ice for 30 min and then centrifuged at 350 × g for 10 mins. The supernatant was decanted and 2 ml of serum-free M199 medium was added to cercarial pellets and vortexed for 1 min until cercarial tails were detached. NTS were purified by layering on 4 °C Percoll gradient suspension containing Eagle’s minimum essential medium, penicillin-streptomycin (10,000 U per ml penicillin/10,000 U per ml streptomycin), and 1 M HEPES in 0.85% NaCl with cercariae suspension and centrifuged at 500 × g for 15 min. Cercarial pellets were resuspended and washed thrice in serum-free M199 medium and collected at 100 × g for 5 min. NTS (240) were transferred to U-bottom 96 well assay plates containing 200 µl of M199 medium supplemented with 5.5 mM D-glucose, penicillin-streptomycin and 5% heat inactivated fetal bovine serum and incubated at 37 °C in a 5% CO2 incubator overnight.
DMSO formulated compounds were diluted with phenol red free M199 medium or RPMI medium for NTS or juvenile and adult worms, respectively, at <1% DMSO final concentrations. NTS, juvenile and adult worms from overnight cultures were tested against compounds in triplicate. Controls were treated with DMSO alone or 5 µM AF as a positive control in appropriate medium. Worm viability was assessed at 24 or 72 h by measuring ATP content of worms using Cell Titer Glo Assay (Promega) as described. Schistosome viabilities in the presence of the compounds were assessed using this formula: % Viability = Averages of Test / Averages of DMSO Control x 100.

[4] = 1 hr, third data set (r147-159), 0hr 72.45
[5] = 1 hr, third data set (r147-159), 0hr = 100
[6] = 1 hr, third data set, (values given as fraction)
[7] = 3 hr, third data set (r147-159), 0hr 72.45
[8] = 3 hr, third data set (r147-159), 0hr = 100
[9] = 3 hr, third data set, (values given as fraction)
[10] = Schistosoma mansoni, 72 h, read-out: % viability, S. mansoni NTS
[11] = 1 hr, first data set (r117-133), baseline 55.82
[12] = 1 hr, first data set (r117-133), baseline = 100
[13] = 3 hr, first data set (r117-133), baseline 55.82
[14] = 3 hr, first data set (r117-133), baseline = 100

| SMILES | Reduction (%) in GSH/GSSG ratio (S. mansoni adult worms [1]; 1 hr, third data set) [%] | Ratio GSH/GSSG (S. mansoni adult worms [1]; [4]) | % Ratio GSH/GSSG (S. mansoni adult worms [1]; [5]) [%] | Reduction (%) in GSH/GSSG ratio (S. mansoni adult worms [1]; [6]) [%] | Reduction (%) in GSH/GSSG ratio (S. mansoni adult worms [1]; 3 hr, third data set) [%] | Ratio GSH/GSSG (S. mansoni adult worms [1]; [7]) | % Ratio GSH/GSSG (S. mansoni adult worms [1]; [8]) [%] | Reduction (%) in GSH/GSSG ratio (S. mansoni adult worms [1]; [9]) [%] | Decrease (%) in GSH/GSSG ratio (S. mansoni adult worms [1]) [%] | LD50 ex vivo S. mansoni adult (S. mansoni adult worms [2]) [µM] | viability at 5 µM (S. mansoni adult worms [2]) [%] | viability at 10 µM (S. mansoni adult worms [2]) [%] | viability at 25 µM (S. mansoni adult worms [2]) [%] | viability at 35 µM (S. mansoni adult worms [2]) [%] | LD50 ex vivo S. mansoni NTS [3] [µM] | LD50 NTS after 72 h exposure [3] [µM] | Ratio GSH/GSSG (S. mansoni adult worms [1]; [11]) | % Ratio GSH/GSSG (S. mansoni adult worms [1]; [12]) [%] | Ratio GSH/GSSG (S. mansoni adult worms [1]; [13]) | % Ratio GSH/GSSG (S. mansoni adult worms [1]; [14]) [%] | further results |
| --- | --- | --- | --- | --- | --- | --- | --- | --- | --- | --- | --- | --- | --- | --- | --- | --- | --- | --- | --- | --- | --- |
| Cc1oc(-c2ccc3c(c2)OCO3)nc1CN[C@@H]1C[C@@H]2C[C@H]([C@H]1C)C2(C)C [Compound 1] | 50.9919 | 35.51 | 49.0081 | 0.5099 | 78.3034 | 15.72 | 21.6966 | 0.78 | 75 | 12.3 ± 1.30 | 77.3 | 58.4 | 0.888 | 0.238 | 5.9 ± 0.25 | 2.2 ± 0.19 |  |  |  |  | viability at 1 µM ([3]; Schistosoma mansoni): 89.9%; viability at 5 µM ([3]; Schistosoma mansoni): 52.7%; viability at 15 µM ([3]; Schistosoma mansoni): 30%; viability at 30 µM ([3]; Schistosoma mansoni): 24.6%; viability at 50 µM ([3]; Schistosoma mansoni): 17.6%; viability at 0.25 µM [3, 10]: 92.1%; viability at 1 µM [3, 10]: 71.2%; viability at 3 µM [3, 10]: 48.1%; viability at 6 µM [3, 10]: 23.4% |
| CCc1ccccc1-c1nc(CN[C@@H]2C[C@@H]3C[C@H]([C@H]2C)C3(C)C)c(C)o1 [Compound 2] |  |  |  |  |  |  |  |  | 39 | 12.5 ± 0.40 | 86.9 | 59.5 | 0.114 | 0.0801 | 0.6 ± 0.21 | 0.18 ± 0.007 | 34.19 | 61.2531 | 28.99 | 51.9337 | viability at 1 µM ([3]; Schistosoma mansoni): 47.9%; viability at 5 µM ([3]; Schistosoma mansoni): 0.373%; viability at 15 µM ([3]; Schistosoma mansoni): 0.0945%; viability at 30 µM ([3]; Schistosoma mansoni): 0.0764%; viability at 50 µM ([3]; Schistosoma mansoni): 0.0707%; viability at 0.125 µM [3, 10]: 65%; viability at 0.25 µM [3, 10]: 40.4%; viability at 0.5 µM [3, 10]: 3.04%; viability at 1 µM [3, 10]: 0.411% |
| Cc1oc(-c2ccccc2)nc1CN[C@@H]1C[C@@H]2C[C@H]([C@H]1C)C2(C)C [Compound 3] | 60.3556 | 28.72 | 39.6444 | 0.60 | 70.1019 | 21.66 | 29.8981 | 0.70 | 62 | 12.1 ± 2.44 |  |  |  |  | 4.3 ± 0.20 |  | 29.86 | 53.4928 | 25.64 | 45.9343 |  |
| Cc1oc(C2CCCCC2)nc1CN[C@@H]1C[C@@H]2C[C@H]([C@H]1C)C2(C)C [Compound 4] |  |  |  |  |  |  |  |  | 60 | 12.6 ± 1.86 |  |  |  |  | 0.85 ± 0.11 |  | 28.16 | 50.452 | 18.95 | 33.9548 |  |
| Cc1oc(-c2ccc3ccccc3c2)nc1CNC1CCCCCC1 [Compound 5] |  |  |  |  |  |  |  |  | 56 | 9.36 ± 0.47 |  |  |  |  | 5.8 ± 0.15 |  |  |  |  |  | % Ratio GSH/GSSG (S. mansoni adult worms [1]; adult worms ex vivo, 1 hr): 47.8314%; Reduction (%) in GSH/GSSG ratio (S. mansoni adult worms [1]; adult worms ex vivo, 1 hr, relative to 0hr): 20.3307%; % Ratio GSH/GSSG (S. mansoni adult worms [1]; adult worms ex vivo, 3 hr): 26.3574%; Reduction (%) in GSH/GSSG ratio (S. mansoni adult worms [1]; adult worms ex vivo, 3 hr, relative to 0hr): 56.0984% |
